Several values for one entry are separate records, joined by “and”; a condition that tells them apart may be missing. Equal values may be shown once.
Columns and labels:
Format in all cases: in vivo, rat
[1] = system: focal cerebral infarcts (MCAo); assay: Hindlimb placing test, Tamura MCAo model; conditions: AVG, 0=normal, 6=maximally impaired
From the text: Surgical Preparation. Middle Cerebral Artery Occlusion (MCAo), Tamura Model. Focal cerebral infarcts were made by permanent occlusion of the proximal right middle cerebral artery using a modification of the method of Tamura et al. […] The temporalis muscle was bisected and reflected through an incision made midway between the eye and the eardrum canal. The proximal MCA was exposed through a subtemporal craniectomy without removing the zygomatic arch and without transecting the facial nerve. […] Animals were euthanatized at various time periods after MCA occlusion and the brains are removed for histological analysis. Behavioral Analysis. Two behavioral tests were performed, the limb placing and body swing test. […] Limb Placing. The limb placing tests were divided into both forelimb and hindlimb tests. For the forelimb-placing test, the examiner held the rat close to a tabletop and scored the rat's ability to place the forelimb on the tabletop in response to whisker, visual, tactile, or proprioceptive stimulation. Similarly, for the hindlimb placing test, the examiner assessed the rat's ability to place the hindlimb on the tabletop in response to tactile and proprioceptive stimulation. […] Typically, there was a slow and steady recovery of limb placing behavior during the first month after stroke. Experimental Groups and Compound Administration. A total of 80 animals underwent MCAo using subcutaneous administration of all test articles, according to the experimental design illustrated in Table 16. […] All animals were treated with the compound(s)/vehicle(s) as a blinded random investigation. The dose and route of administration is given below in Table 16.

[2] = system: focal cerebral infarcts (MCAo); assay: Body swing test, Tamura MCAo model; set-up: unit not given here; conditions: AVG
From the text: Surgical Preparation. Middle Cerebral Artery Occlusion (MCAo), Tamura Model. Focal cerebral infarcts were made by permanent occlusion of the proximal right middle cerebral artery using a modification of the method of Tamura et al. […] The temporalis muscle was bisected and reflected through an incision made midway between the eye and the eardrum canal. The proximal MCA was exposed through a subtemporal craniectomy without removing the zygomatic arch and without transecting the facial nerve. […] Animals were euthanatized at various time periods after MCA occlusion and the brains are removed for histological analysis. Behavioral Analysis. Two behavioral tests were performed, the limb placing and body swing test. […] Body Swing Test. The animal was held approximately 1 inch from the base of its tail. It was then elevated to an inch above a surface of a table. The animal was held in the vertical axis, defined as no more than 10° to either the left or the right side. A swing was recorded whenever the animal moves its head out of the vertical axis to either side. Before attempting another swing, the animal must return to the vertical position for the next swing to be counted. Thirty total swings were counted. A normal animal typically has an equal number of swings to either side. Following focal stroke, the animal tends to swing to the contralateral side. There is a slow spontaneous recovery of body swing during the first month after stroke. Experimental Groups and Compound Administration. A total of 80 animals underwent MCAo using subcutaneous administration of all test articles, according to the experimental design illustrated in Table 16. […] All animals were treated with the compound(s)/vehicle(s) as a blinded random investigation. The dose and route of administration is given below in Table 16.

[3] = system: focal cerebral infarcts (MCAo); assay: Infarct volume measurement (H&E), Tamura MCAo model; conditions: day 7
From the text: Behavioral assessment as well as infarct volume of compound-treated animals in comparison to control (vehicle) volume animals was used for evaluating compound efficacy over a 7 day period.
Surgical Preparation. Middle Cerebral Artery Occlusion (MCAo), Tamura Model. Focal cerebral infarcts were made by permanent occlusion of the proximal right middle cerebral artery using a modification of the method of Tamura et al. Male Sprague-Dawley rats (300-350 g) were anesthetized with 2% isoflourane in 50% Air/50% O2, and maintained with 1-1.5% isoflourane. The temporalis muscle was bisected and reflected through an incision made midway between the eye and the eardrum canal. The proximal MCA was exposed through a subtemporal craniectomy without removing the zygomatic arch and without transecting the facial nerve. […] Body temperature was maintained at 38° C.±1 throughout the entire procedure. Animals were euthanatized at various time periods after MCA occlusion and the brains are removed for histological analysis.
Morphometric Analysis—Brain Perfusion. Seven days after the induction of focal ischemia, rats were deeply anesthetized with a ketamine, and xylazine cocktail. The animals were then perfused transcardially with normal saline (with heparin 2 unit/ml) followed by 4% paraformaldehyde for infarct volume measurement (H&E staining). Brains were removed and stored in 10% formalin to be sectioned and stained with Hematoxylin and Eosin.
Infarct Volume Measurement. Using the Image Pro-Plus imaging system, a total of 7 images per brain of the posterior side of each slice were analyzed through digital analysis. The total direct infarct volume was calculated for the left hemisphere using the equation below. Digitizing and computation was done under blinded conditions.
The total infarct volumes are calculated for each animal and subsequent group means were determined as volume of area (mm^3). To account for tissue shrinkage and possible edema the indirect method of infarct volume was calculated using the formula: Total Contralateral Hemisphere Volume−Total Infarcted Hemisphere Volume (mm^3)
Experimental Groups and Compound Administration. A total of 80 animals underwent MCAo using subcutaneous administration of all test articles, according to the experimental design illustrated in Table 16. […] The time schedules for administration of all treated groups (10 animals/group) was divided as follows:
All animals were treated with the compound(s)/vehicle(s) as a blinded random investigation. The dose and route of administration is given below in Table 16. Forty animals used in the first group of the study (group a.) Cerebral blood flow measurement was performed according to the protocol previously discussed on days 0, 1 and 5 with respect to MCAo.

[4] = administered six hours after MCAo
[5] = administered three hours after MCAo
[6] = administered six hours after MCAo, listed as C
[7] = administered three hours after MCAo, listed as C
[8] = administered six hours after MCAo, listed as A
[9] = administered three hours after MCAo, listed as A
[10] = administered six hours after MCAo, listed as B
[11] = administered three hours after MCAo, listed as B

SMILES | Hindlimb placing test score, D0 [1, 4] | Hindlimb placing test score, D1 [1, 4] | Hindlimb placing test score, D3 [1, 4] | Hindlimb placing test score, D7 [1, 4] | Hindlimb placing test score, D0 [1, 5] | Hindlimb placing test score, D1 [1, 5] | Hindlimb placing test score, D3 [1, 5] | Hindlimb placing test score, D7 [1, 5] | Body swing test score, D0 [2, 4] | Body swing test score, D1 [2, 4] | Body swing test score, D3 [2, 4] | Body swing test score, D7 [2, 4] | Body swing test score, D0 [2, 5] | Body swing test score, D1 [2, 5] | Body swing test score, D3 [2, 5] | Body swing test score, D7 [2, 5] | Corrected Infarct Volume, Average [3, 4] [mm^3] | Percent Infarct Volume, Average [3, 4] [%] | Corrected Infarct Volume, Average [3, 5] [mm^3] | Percent Infarct Volume, Average [3, 5] [%] | further results
CC(C)c1c(C(=O)Nc2ccccc2)c(-c2ccccc2)c(-c2ccc(F)cc2)n1CC[C@@H](O)C[C@@H](O)CC(=O)O [atorvastatin, reference compound] | 0 | 5.9 | 4.9 | 3.5 | 0 | 5.6 | 4.3 | 2.8 | 50 | 19 | 17 | 19 | 50 | 13 | 28 | 41 | 271.2 | 24.56 | 207.96 | 21 | Corrected Infarct Volume, individual animals [3, 6]: 138.8 mm^3 and 267.1 mm^3 and 232.3 mm^3 and 333 mm^3 and 214.3 mm^3 and 291.6 mm^3 and 338.3 mm^3 and 354.3 mm^3; Percent Infarct Volume, individual animals [3, 6]: 12.7% and 21.6% and 24.2% and 31% and 25.4% and 29.4% and 25.7% and 26.6%; Corrected Infarct Volume, individual animals [3, 7]: 208 mm^3 and 303.3 mm^3 and 262.3 mm^3 and 184.8 mm^3 and 243.8 mm^3 and 124 mm^3 and 162.8 mm^3 and 164.5 mm^3 and 218.2 mm^3; Percent Infarct Volume, individual animals [3, 7]: 18.35% and 28.2% and 31% and 16.2101% and 25.43% and 12.82% and 17.39% and 16.81% and 22.81%
CC(C)c1c(C(=O)Nc2ccccc2)c(-c2ccccc2)c(-c2ccc(F)cc2)n1CC(O)C(O)C(O)C(O)CO (stereo not drawn) [Compound 782236] | 0 | 4.7 | 4 | 3.3 | 0 | 4.6 | 4 | 3.2 | 50 | 7 | 9 | 23 | 50 | 8 | 27 | 37 | 239.27 | 26.69 | 212.59 | 23.53 | Corrected Infarct Volume, individual animals [3, 8]: 227.2 mm^3 and 166.6 mm^3 and 234.6 mm^3 and 269.8 mm^3 and 249 mm^3 and 215.8 mm^3 and 229 mm^3 and 213.3 mm^3 and 271.4 mm^3 and 316 mm^3; Percent Infarct Volume, individual animals [3, 8]: 25.6% and 31.5% and 24.6% and 28.8% and 28.1% and 28.9% and 24.8% and 23.5% and 25.3% and 25.8%; Corrected Infarct Volume, individual animals [3, 9]: 210.9 mm^3 and 272.5 mm^3 and 275.6 mm^3 and 163.8 mm^3 and 249 mm^3 and 229.2 mm^3 and 127.9 mm^3 and 222.3 mm^3 and 235 mm^3 and 139.8 mm^3; Percent Infarct Volume, individual animals [3, 9]: 25.1% and 29% and 23.7% and 15.8% and 28.1% and 25.9% and 15.9% and 27.5% and 25.4% and 18.9%
CC(C)c1[nH]c(-c2ccc(F)cc2)c(-c2ccccc2)c1C(=O)Nc1ccccc1 [Compound 781430] | 0 | 5.3 | 3.5 | 3 | 0 | 4.1 | 2.8 | 2.1 | 50 | 19 | 22 | 23 | 50 | 31 | 43 | 44 | 283.4 | 26.92 | 213.77 | 22.29 | Corrected Infarct Volume, individual animals [3, 10]: 375.7 mm^3 and 204.5 mm^3 and 353.2 mm^3 and 262.2 mm^3 and 196.6 mm^3 and 352.4 mm^3 and 289.9 mm^3 and 195.4 mm^3 and 327.7 mm^3 and 276.5 mm^3; Percent Infarct Volume, individual animals [3, 10]: 31.4% and 21.7% and 26.2% and 33.9% and 15.6% and 29.1% and 28.8% and 25.4% and 35.3% and 21.8%; Corrected Infarct Volume, individual animals [3, 11]: 200.1 mm^3 and 231.7 mm^3 and 217.7 mm^3 and 173 mm^3 and 180.5 mm^3 and 224.1 mm^3 and 208.1 mm^3 and 233.4 mm^3 and 255.3 mm^3; Percent Infarct Volume, individual animals [3, 11]: 19.74% and 21.5679% and 24.3% and 20.62% and 19.71% and 23.99% and 22.56% and 24.24% and 23.9%
